The record followed here is patent publication US10487093B2, “Heterocyclic compounds, in particular 2-oxo-4,4,5,5,6,6,7,7-octahydrobenzoxazole derivatives, and their use as antibacterial compounds” (priority 2016, dated 2019).

≈ marks a conversion by molar mass, not a printed value.

The subject of experiment [1] is Acinetobacter baumannii ATCC 19606. In words: MIC, broth microdilution (CLSI) versus planktonic bacteria. Format: cell-based. Conditions: ATCC19606; Acinetobacter baumannii ATCC 19606; 16-20 h; mode of three independent experiments; read-out: MIC, Ab ATCC 19606. Background: Broth dilution looks for growth in wells or tubes with falling amounts of substance.
The subject of another experiment is E. coli NCTC 13476. Described as above. The class given is cell-based. As to conditions: NCTC13476; Escherichia coli NCTC 13476; 16-20 h; mode of three independent experiments; read-out: MIC, Ec NCTC 13476.
For experiment [2], the system named is Mycobacterium smegmatis ATCC 19420. The experiment is described as above. Format: cell-based. Conditions: Mycolicibacterium smegmatis, ATCC19420, 16-20 h, mode of three independent experiments, read-out: MIC, Ms ATCC 19420.
In another experiment the test system is E. coli MG1655 D87G. Format: cell-based, Escherichia coli. Conditions: compared to the isogenic parent strain E. coli MG1655; D87G mutation on DNA gyrase subunit GyrA.
Experiment [3] has as its system Acinetobacter baumannii NCTC 13420. In words: MIC, broth microdilution (CLSI) versus planktonic bacteria. Format: cell-based. As to conditions: NCTC13420; Acinetobacter baumannii NCTC 13420; 16-20 h; mode of three independent experiments; read-out: MIC, Ab NCTC 13420.
For the next experiment, the system named is E. coli MG1655 S83L. The class given is cell-based, Escherichia coli. Conditions: compared to the isogenic parent strain E. coli MG1655; S83L mutation on DNA gyrase subunit GyrA.
Experiment [4] deals with Haemophilus influenzae ATCC 49247. In words: MIC, broth microdilution (CLSI) versus planktonic bacteria. The class given is cell-based. As to conditions: ATCC49247; Haemophilus influenzae ATCC 49247; 16-20 h; mode of three independent experiments; read-out: MIC, Hi ATCC 49247.
Experiment [5] relates to Streptococcus pneumoniae ATCC 49619. The experiment is described as above. The class given is cell-based. As to conditions: ATCC49619; Streptococcus pneumoniae ATCC 49619; 16-20 h; mode of three independent experiments; read-out: MIC, Sp ATCC 49619.
The next experiment concerns E. coli MG1655. The description is as above. The class given is cell-based, Escherichia coli. Conditions: Escherichia coli, MG1655, read-out: MIC, Ec MG1655 WT.
The test system of experiment [6] is Escherichia coli ATCC 25922. The description is as above. The class given is cell-based. As to conditions: ATCC25922; Escherichia coli ATCC 25922; 16-20 h; mode of three independent experiments; read-out: MIC, Ec ATCC 25922.
Experiment [7] deals with Enterobacter cloacae NCTC 13406. Described as above. Conditions: NCTC13406; Enterobacter cloacae NCTC 13406; 16-20 h; mode of three independent experiments; read-out: MIC, Ecl NCTC 13406. Format: cell-based.
In experiment [8] the test system is Staphylococcus aureus ATCC 29213. Described as above. The class given is cell-based. Conditions: ATCC29213; Staphylococcus aureus ATCC 29213; 16-20 h; mode of three independent experiments; read-out: MIC, Sa ATCC 29213.
For experiment [9], the system named is human hepatic cell line (HepG2 ATCC HB-8065). Description: Human cell viability assay (CellTiter-Glo). As to conditions: Homo sapiens, HepG2, 24 h, read-out: IC50 (μg/mL) HepG2. In general terms: In ATP-based viability assays light output follows the ATP content of the culture.
Experiment [10] deals with Neisseria meningitidis ATCC 13090. In words: MIC, broth microdilution (CLSI) versus planktonic bacteria. Format: cell-based. Conditions: ATCC13090, 16-20 h, mode of three independent experiments.
A further experiment concerns E. coli ATCC BAA-2452. The experiment is described as above. The class given is cell-based. As to conditions: Escherichia coli ATCC BAA-2452; 16-20 h; mode of three independent experiments; read-out: MIC, Ec ATCC BAA 2452.
In experiment [11] the test system is Pseudomonas aeruginosa ATCC 27853. The experiment is described as above. Format: cell-based. Conditions: ATCC27853; Pseudomonas aeruginosa ATCC 27853; 16-20 h; mode of three independent experiments; read-out: MIC, Pa ATCC 27853.

For `COc1ccc2ccc(=O)n(CCN[C@H]3CC[C@H]4[C@@H](C3)OC(=O)N4c3ccc4c(n3)NC(=O)CO4)c2n1` [Compound 4, 1-(2-{[(3aS,6S,7aR)-2-oxo-3-{3-oxo-2H,3H,4H-pyrido[3,2-b][1,4]oxazin-6-yl}-octahydro-1,3-benzoxazol-6-yl]amino}ethyl)-7-methoxy-1,2-dihydro-1,8-naphthyridin-2-one], the MIC in [1] is below 1 µg/mL; in the experiment on E. coli NCTC 13476, below 1 µg/mL; in experiment [2], below 1 µg/mL; in experiment [3], below 1 µg/mL; in experiment [4], 1 to 10 µg/mL (≈ 1.97 to 19.7 µM); in experiment [5] it was below 1 µg/mL. Moreover, the MIC (with E. coli MG1655; in experiment [6]; in experiment [7]; in experiment [8]; in experiment [10]; with E. coli ATCC BAA-2452) was below 1 µg/mL in each case. Further, in [11], the MIC fell in the range of 1 to 10 µg/mL (≈ 1.97 to 19.7 µM). The “Fold increase in MIC, E. coli MG1655 D87G” value in the experiment on E. coli MG1655 D87G is given as 1 fold. Further, the “Fold increase in MIC, E. coli MG1655 S83L” value with E. coli MG1655 S83L turned out to be 1 fold. The IC50 in experiment [9] is 10 to 100 µg/mL (≈ 19.7 to 197 µM).

Take `O=C1COc2ccc(N3C(=O)O[C@@H]4C[C@@H](NCCn5c(=O)ccc6ccc(OCCO)nc65)CC[C@@H]43)nc2N1` [Compound 6, 1-(2-{[(3aS,6S,7aR)-2-oxo-3-{3-oxo-2H,3H,4H-pyrido[3,2-b][1,4]oxazin-6-yl}-octahydro-1,3-benzoxazol-6-yl]amino}ethyl)-7-(2-hydroxyethoxy)-1,2-dihydro-1,8-naphthyridin-2-one]: the MIC was below 1 µg/mL in experiment [2]; 10 to 100 µg/mL (≈ 18.6 to 186 µM) in experiment [3]; 1 to 10 µg/mL (≈ 1.86 to 18.6 µM) in experiment [4]; below 1 µg/mL in experiment [5]; 1 to 10 µg/mL (≈ 1.86 to 18.6 µM) in experiment [6]; 10 to 100 µg/mL (≈ 18.6 to 186 µM) in experiment [7]. Further, the MIC in experiment [8] and in experiment [11] was 1 to 10 µg/mL (≈ 1.86 to 18.6 µM) in each case. Moreover, the IC50 in experiment [9] is above 100 µg/mL.

Consider `NS(=O)(=O)c1ccc(Oc2ccc3ccc(=O)n(CCN[C@@H]4CC[C@@H]5[C@@H](C4)OC(=O)N5c4ccc5c(n4)NC(=O)CO5)c3n2)cc1` [Compound 8, 4-{[8-(2-{[(3aR,6R,7aR)-2-oxo-3-{3-oxo-2H,3H,4H-pyrido[3,2-b][1,4]oxazin-6-yl}-octahydro-1,3-benzoxazol-6-yl]amino}ethyl)-7-oxo-7,8-dihydro-1,8-naphthyridin-2-yl]oxy}benzene-1-sulphonamide], for which the MIC was below 1 µg/mL in [2]; 10 to 100 µg/mL (≈ 15.4 to 154 µM) in experiment [3]; below 1 µg/mL in [4]; 1 to 10 µg/mL (≈ 1.54 to 15.4 µM) in experiment [5]; 1 to 10 µg/mL (≈ 1.54 to 15.4 µM) in experiment [6]; 10 to 100 µg/mL (≈ 15.4 to 154 µM) in experiment [7]. In addition, the MIC in [8] was below 1 µg/mL; in [11] it was 10 to 100 µg/mL (≈ 15.4 to 154 µM). The IC50 in [9] is 10 to 100 µg/mL (≈ 15.4 to 154 µM).

For the molecule `NCCOc1ccc2ccc(=O)n(CCN[C@H]3CC[C@H]4[C@@H](C3)OC(=O)N4c3ccc4c(n3)NC(=O)CO4)c2c1` [Compound 9, 1-(2-{[(3aS,6S,7aR)-2-oxo-3-{3-oxo-2H,3H,4H-pyrido[3,2-b][1,4]oxazin-6-yl}-octahydro-1,3-benzoxazol-6-yl]amino}ethyl)-7-(2-aminoethoxy)-1,2-dihydroquinolin-2-one], the MIC in experiment [2] is above 100 µg/mL; in experiment [3] it was above 100 µg/mL; in experiment [4], 10 to 100 µg/mL (≈ 18.7 to 187 µM); in experiment [5], 10 to 100 µg/mL (≈ 18.7 to 187 µM); in [6], 1 to 10 µg/mL (≈ 1.87 to 18.7 µM); in [7], above 100 µg/mL. In addition, the MIC in [8] and in experiment [11] was 1 to 10 µg/mL (≈ 1.87 to 18.7 µM) in each case. The IC50 in experiment [9] is above 100 µg/mL.

`NCCOc1ccc2ccc(=O)n(CCN[C@H]3CC[C@H]4[C@@H](C3)OC(=O)N4c3ccc4c(n3)NC(=O)CO4)c2n1` [Compound 10, 1-(2-{[(3aS,6S,7aR)-2-oxo-3-{3-oxo-2H,3H,4H-pyrido[3,2-b][1,4]oxazin-6-yl}-octahydro-1,3-benzoxazol-6-yl]amino}ethyl)-7-(2-aminoethoxy)-1,2-dihydro-1,8-naphthyridin-2-one]: the MIC in experiment [2] is above 100 µg/mL; in [3], above 100 µg/mL; in experiment [4] it was 10 to 100 µg/mL (≈ 18.7 to 187 µM); in [5], 10 to 100 µg/mL (≈ 18.7 to 187 µM); in experiment [6], 1 to 10 µg/mL (≈ 1.87 to 18.7 µM); in [7], above 100 µg/mL. Further, the MIC in experiment [8] was in the range of 10 to 100 µg/mL (≈ 18.7 to 187 µM); in experiment [11] it was 1 to 10 µg/mL (≈ 1.87 to 18.7 µM). Further, the IC50 in experiment [9] was above 100 µg/mL.

Regarding `N#Cc1cccc(-c2cccc(CN[C@H]3CC[C@H]4[C@@H](C3)OC(=O)N4c3ccc4c(n3)NC(=O)CO4)c2O)n1` [Compound 18, 6-[3-({[(3aS,6S,7aR)-2-oxo-3-{3-oxo-2H,3H,4H-pyrido[3,2-b][1,4]oxazin-6-yl}-octahydro-1,3-benzoxazol-6-yl]amino}methyl)-2-hydroxyphenyl]pyridine-2-carbonitrile], the MIC in experiment [1] was below 1 µg/mL; with E. coli NCTC 13476, 1 to 10 µg/mL (≈ 1.95 to 19.5 µM); in experiment [3] it was below 1 µg/mL; in experiment [4] it was 1 to 10 µg/mL (≈ 1.95 to 19.5 µM); in experiment [5], below 1 µg/mL; with E. coli MG1655 it was below 1 µg/mL. In addition, the MIC in [6] was below 1 µg/mL; in [7] it was below 1 µg/mL; in experiment [8], below 1 µg/mL; in experiment [10], below 1 µg/mL; in the experiment with E. coli ATCC BAA-2452, 1 to 10 µg/mL (≈ 1.95 to 19.5 µM); in experiment [11], 1 to 10 µg/mL (≈ 1.95 to 19.5 µM). Further, in the experiment with E. coli MG1655 D87G, the “Fold increase in MIC, E. coli MG1655 D87G” value is 1 fold. Besides, the “Fold increase in MIC, E. coli MG1655 S83L” value with E. coli MG1655 S83L is 2 fold. In experiment [9], the IC50 was in the range of 1 to 10 µg/mL (≈ 1.95 to 19.5 µM).

Consider `N#Cc1ccc2ccc(=O)n(CCN(CCN)[C@H]3CC[C@H]4[C@@H](C3)OC(=O)N4c3ccc4c(n3)NC(=O)CO4)c2c1` [Compound 58, 1-(2-{[(3aS,6S,7aR)-2-oxo-3-{3-oxo-2H,3H,4H-pyrido[3,2-b][1,4]oxazin-6-yl}-octahydro-1,3-benzoxazol-6-yl](2-aminoethyl)amino}ethyl)-2-oxo-1,2-dihydroquinoline-7-carbonitrile], for which the MIC was 1 to 10 µg/mL (≈ 1.84 to 18.4 µM) in [2]; above 100 µg/mL in [3]; above 100 µg/mL in [4]; above 100 µg/mL in experiment [5]; 10 to 100 µg/mL (≈ 18.4 to 184 µM) in experiment [6]; above 100 µg/mL in [7]. For the same molecule, the MIC is below 1 µg/mL in experiment [8] and 1 to 10 µg/mL (≈ 1.84 to 18.4 µM) in [11]. Moreover, the IC50 in experiment [9] was above 100 µg/mL.
